Source: patent publication US10066025B2, “Compositions and methods for detecting, treating and preventing diseases and disorders” (YALE UNIVERSITY, priority 2012, dated 2018)
“Also recorded” adds a separate entry of the source.

What was measured:
[1] = NADH / amine oxidase activity of renalase peptides; format: biochemical; conditions: 25 mM Tris, pH 7.5, 5 mM NaCl, 150 μM NADH, 37° C.
Method: Renalase isoforms Ren1-7; exons numbered from 1 to 10; RP-224: renalase peptide amino acid 224-233 of Ren1 or Ren2; RP-220; amino acids 220-239; RP-H220: histidine tagged RP-220; RP-Scr220: scrambled RP-220 (FIG. 19A). CCL-119 cells in culture treated with anti-renalase monoclonal antibody for 24 hrs; cell survival measured by the WST-1 method; n=3, *: P<0.05 (FIG. 19B). HK-2 cell treated with 2 mM H2O2 with and without renalase peptides for indicated time; LDH: lactate dehydrogenase; n=6, *: P<0.05 for Control vs. renalase peptide (FIG. 19C). HK-2 cells treated with 20 μM cisplatin with and without recombinant renalase and renalase peptides for 24 hrs, *: P<0.05, control vs. renalase peptide (FIG. 19D). Plasma creatinine levels from mice subjected to sham-surgery or to renal ischemia and reperfusion (IR); Renalase WT mice were subjected to sham-surgery or to 30 min renal IR. For mice subjected to renal IR, RP-H220 or vehicle (saline) was injected 10 min prior to renal ischemia.
Human recombinant renalase was synthesized as described (Desir et al., 2012, J Am Heart Assoc. 1:e002634). […] Renalase enzymatic activity was measured as previously described (Desir et al., 2012, J Am Heart Assoc. 1:e002634). Renalase expression was detected using an anti-renalase monoclonal antibody generated against the renalase peptide RP-220 (amino acid

systemic blood pressure = assay: Blood pressure and heart rate in anesthetized mice; format: in vivo; conditions: for effect on systemic blood pressure: IV and subcutaneous administration, mice
Method: As in 14A, except that RP-H220 is injected; no significant changes in blood pressure (FIG. 14B). Effect of a single intravenous injection of RP-220 (squares) and RP-H220 (diamonds) on heart rate in wild type mice (FIG. 14C).
FIG. 21 depicts the results of experiments examining the effect of RP-220 injection on blood pressure. A single subcutaneous injection of RP-220 (n=3) or buffer (n=2) in anesthetized wild type mice; BP pressure is recorded continuously; RP-220 is given at time 0; each data point represents the mean pressure; the standard error of the means are shown.
Systolic and diastolic pressure and heart rate were measured in anesthetized mice as previously described (Desir et al., 2012, J Am Heart Assoc. 1:e002634).

cisplatin-mediated AKI = assay: Murine model of cisplatin AKI; format: in vivo, mice; conditions: cisplatin + peptide; Sham 0.05±0.002, cisplatin 0.177±0.02; n=3
Method: The efficacy of recombinant renalase in treating cisplatin-induced AKI was investigated, and the mechanisms that mediate its protective action were assessed. Cisplatin (20 mg/kg) was administered by intra-peritoneal injection to either WT or renalase KO mice. The mice were sacrificed 3 days later. Blood was collected for BUN and creatinine measurements, and kidneys harvested for histologic examination, immunofluorescence (IF), and western blotting (WB). One renal pathologist, masked to the identity of the study animal, reviewed each kidney specimen. Pathologic features were scored using an ordinal rating scale (0-4; 0=none; 1=<25%, 2=26-50%; 3=51-75%; 4=76-100%) for the presence of tubular necrosis. Morphometry of renal cortex and medulla was performed using point counting technique. Points falling on injured tubules, were counted and the percentage of lesion area was calculated as percentage of total points counted
Cisplatin (15-20 mg/kg) was administered by intraperitoneal injection (IP) to either WT or renalase KO mice under brief isoflurane anesthesia. The animals were sacrificed 3 days later. […] Pathologic features were scored using an ordinal rating scale (0-4; 0=none; 1=<25%, 2=26-50%; 3=51-75%; 4=76-100%) for the presence of tubular necrosis. […] Points falling on injured tubules were counted, and the percentage of lesion area was calculated as percentage of total points counted. […]

[2] = test system: renal ischemia/reperfusion (IR) injury; assay: Murine model of renal ischemia/reperfusion (IR) injury, plasma creatinine; format: in vivo, mice; conditions: renalase peptides 100 μg subcutaneous 10 to 30 min prior to 30 min renal ischemia, WT mice
Method: Adult male renalase deficient (KO) mice (Wu et al., 2011, Kidney Int 79: 853-860) on a C57BL/6 background were subjected to renal ischemia/reperfusion (IR) as described (Kim et al., 2009, Kidney Int 75: 809-823; Kim et al., 2010, Am J Physiol Renal Physiol 299(2):F347-58). Renalase KO or wild type (WT) mice (C57BL/6 from Harlan Labs, Indianapolis, Ind.) were subjected to sham-operation or to 20 min. (moderate) or 30 min. (severe) renal ischemia and 24 hr. reperfusion. To test the renal protective effects of recombinant human renalase, mice were pretreated with saline (vehicle) or with recombinant renalase (0.5, 1.5 or 4.5 mg/kg, s.c.) 10 min. prior to 30 min. renal ischemia. It was also tested whether renalase treatment after completion of renal ischemia also provides renal protection. Separate cohorts of mice were treated with saline or with renalase (1.5 mg/kg, s.c.) 30 min. or 60 min. after reperfusion of the ischemic kidney. To test whether blocking alpha receptors would mimic the renal protective effects of human recombinant renalase administration, phentolamine (an alpha receptor antagonist, 5 mg/kg, i.p.) was given in some mice 15 min. before renal ischemia.
Plasma creatinine was measured as described with an enzymatic creatinine reagent kit according to the manufacturer's instructions (Thermo Fisher Scientific, Waltham, Mass.) (Slot, 1965, J Clin Lab Invest 17: 381-387).
After animal care and use committee approval, adult male C57BL/6 (Harlan Labs, Indianapolis, Ind.) were subjected to sham-operation or to 30 minutes of renal ischemia followed by 24 hrs of reperfusion as previously described (Lee et al., 2004, American journal of physiology. Renal physiology 286:F298-306). To test the renal protective effects of renalase peptides (RP-220, RP-H220 and RP-224), mice were pretreated with saline (vehicle) or with renalase peptides (100 μg subcutaneous) 10 to 30 minutes prior to renal ischemia.
Blood was collected from mice anesthetized with isoflurane via cardiac puncture into a heparinized syringe and was subsequently centrifuged to separate plasma. Samples were submitted to the Yale O'Brien Kidney Center for measurement of BUN and creatinine. Plasma creatinine was measured either by an enzymatic creatinine reagent kit according to the manufacturer's instructions (Thermo Fisher Scientific, Waltham, Mass.) or by HPLC. These methods of creatinine measurement largely eliminate the interferences from mouse plasma chromagens, known to occur with the Jaffe method.

## RP H220: histidine tagged RP-220, SEQ ID NO: 4, HHHHHHCIRFVSIDNKKRNIESSEIG (listed as Homo sapiens)
[1]
  NADH or amine oxidase activity: no detectable NADH or amine oxidase activity; also recorded: neither detectable oxidase activity
Systemic blood pressure
  effect on systemic blood pressure: nor significant effect on systemic blood pressure; also recorded: no effect on BP
Systemic blood pressure; listed as RP-H220
  effect on systemic blood pressure: neither intravenous nor subcutaneous injection of RP-H220 had any effect on blood pressure
Systemic blood pressure; anesthetized WT mice
  heart rate: did not change
cisplatin-mediated AKI
  creatinine measured by HPLC: 0.085±0.007
[2]
  protection against ischemic AKI (renal injury, plasma creatinine at 24 hr): protected against ischemia
[2]; listed as RP-H220
  protection against ischemic AKI (renal injury, plasma creatinine at 24 hr): reduced renal injury; also recorded: more effective than RP-220; also recorded: ameliorated the renal ischemic injury
